Assay results as given in patent US12226490B2, “Anti-ROR1 antibody conjugates, compositions comprising anti ROR1 antibody conjugates, and methods of making and using anti-ROR1 antibody conjugates preliminary class” (Sutro Biopharma, Inc., priority 2022, dated 2025).

Assays:
[1] = tested on: ROR1 positive Ntera-2 cell; test: In vitro cell killing of ROR1 ADCs, ROR1 positive cells (Cell Titer-Glo, 120 hours); type: cell-based, human; conditions: Table 13
Source text: (§1) Ntera-2, MDA-MB-231, MCF7, HCT116 and Mino cells were obtained from ATCC. HCT116-hRor1-D02 clone was generated by transfecting HCT116 cells with a plasmid containing human Ror1 cDNA sequence and selected for highest stable expression of hRor1 on the cell surface. MDA-MB-231, MCF7, HCT116 and HCT116-Ror1 cell were maintained in Ham's F-12 high glucose DMEM (50-50) (Cellgro-Mediatech; Manassas, VA) supplemented with 10% heat-inactivated fetal bovine serum (Hyclone; Thermo Scientific; Waltham, MA), 1% Penicillin/Streptomycin (Cellgro-Mediatech; Manassas, VA) and 2 mmol/L-glutamax (Life Technology; Carlsbad, CA). Mino cells were maintained in RPMI-1640 medium (Cellgro-Mediatech; Manassas, VA) supplemented with 20% heat-inactivated fetal bovine serum (Hyclone; Thermo Scientific; Waltham, MA), 1% Penicillin/Streptomycin (Cellgro-Mediatech; Manassas, VA) and 2 mmol/L-glutamax (Life Technology; Carlsbad, CA).
(§2) Anti-ROR1 antibody was conjugated to different linker-warheads described herein at different DARs and the cell killing activity of the ADCs were evaluated on ROR1 positive Ntera-2 cell and ROR1 negative MCF7 cells.
(§3) Ntera-2 or MCF7 cell at 625 cells/25 μL were seeded in a 384-well flat bottom white polystyrene plate one day before the assay start. ADCs were formulated at 2× starting concentration. Filter sterilized samples were serial diluted (1:3) under sterile conditions and added onto cells in triplicates. Plates were cultured at 37° C. in a CO2 incubator for 120 hours. […] Relative luminescence was measured on an ENVISION® plate reader (Perkin-Elmer; Waltham, MA). Relative luminescence readings were converted to % viability using untreated cells as controls. […]
(§4) To evaluate if the cell killing activity of anti-ROR1 ADCs is dependent on antibody binding to ROR1 expressed on cell surface, the same linker-warheads (LP3, LP4) were conjugated to an anti-GFP antibody and the cell killing of the anti-ROR1 and anti-GFP ADCs were evaluated in cell killing assays on ROR1 positive Ntera-2 cell and ROR1 negative MCF7 cells.

[2] = tested on: ROR1 negative MCF7 cells; test: In vitro cell killing of ROR1 ADCs, ROR1 negative cells (Cell Titer-Glo, 120 hours); type: cell-based, human; conditions: Table 13
Source text: as §1, §2, §3, §4

[3] = tested on: ROR1-positive Ntera-2 cells co-cultured with PMBCS; test: Ntera-2 / PBMC co-culture: target cell killing and monocyte activation (FACS); type: cell-based, human
Description: ROR1-positive Ntera-2 cells were co-cultured with PMBCS at E:T=[…] and treated with Conjugate 46 or exatecan for 3 days. Live target cell count and monocyte activation were measured by FACS. […] FIG. 21A and FIG. 21B are graphs showing the percent of live target cells and monocyte activation in Ntera-2 cells following treatment with Conjugate 46 or exatecan compared to the un-conjugated antibody and an isotype control of Conjugate 46. […] Unconjugated anti-ROR1 antibody or a non-targeted ADC had no activity. […] Viability and calreticulin surface expression were measured and presented as a percentage compared to untreated cells.

[4] = tested on: ROR1-positive Ntera-2 cells; test: Induction of immunogenic cell death markers (calreticulin by FACS, HMGB1 by ELISA); type: cell-based, human; conditions: 3 days treatment
Description: ROR1-positive Ntera-2 cells were treated with Conjugate 46 or exatecan for 3 days. Calreticulin on the cell surface was measured by FACS and HMGB1 in the cell culture medium were measured by ELISA. […] FIG. 20A and FIG. 20B illustrate calreticulin expression and HMGB1 release of Ntera-2 cells in the presence of Conjugate 46 or exatecan compared to the un-conjugated antibody and an isotype control of Conjugate 46.

[5] = tested on: TNBC PDX tumors; test: TNBC PDX models, single agent or combination with olaparib; type: in vivo, athymic nude Fox1^nu mice; conditions: CTG-0437, CTG-1017, and CTG-2055; olaparib p.o. 50 mg/kg qd×28
Source text: The activity of Conjugate 46 as a single agent or in combination with the PARP inhibitor olaparib was additionally assessed in TNBC PDX models. Briefly, PDX tumors, spanning varying levels of ROR1 expression and sensitivity to olaparib, were passaged in athymic nude Fox1^nu mice before being processed into tumor fragments for subcutaneous implantation into the hind flank of mice for study initiation. When tumors reached a volume of around 150-300 mm^3, the mice were randomized and enrolled into the study. Tumor-bearing mice were administered up to three weekly doses (qw×3) of Conjugate 46 i.v. at 5 mg/kg and up to twenty-eight daily doses (qd×28) of olaparib p.o. at 50 mg/kg.
Combination treatment with Conjugate 46 and olaparib (50 mg/kg, qd×28) is conducted using a 2 mg/kg, qw×3 dosing regimen for Conjugate 46. The combination therapy is assessed in six TNBC PDX models as described in Example 26.

[6] = target: T1, hROR1 (ROR1-extracellular domain) (Homo sapiens, UniProt Q01973); test: Biacore off-rate and kinetic analysis, ROR1 extracellular domain; type: binding; conditions: Sample ROR1 ECD, SPR
T1 construct: the ROR1-extracellular domain (hROR1); purchased Acro Biosystems
Description: Anti-Fc polyclonal antibodies were immobilized onto a CM5 chip (GE Life Sciences) using amine coupling chemistry (from Amine Coupling Kit, GE Life Sciences). The immobilization steps were carried out at a flow rate of 25 μL/min in 1×HBS-EP+ buffer (GE Life Sciences; 10× Stock diluted before use). The sensor surfaces were activated for 7 min with a mixture of NHS (0.05 M) and EDC (0.2 M). The Anti-Fc antibodies were injected over all 4 flow cells at a concentration of 25 ug/ml in 10 mM sodium acetate, pH 4.5, for 7 min. Ethanolamine (1 M, pH 8.5) was injected for 7 min to block any remaining activated groups. […]
The data was fit with the Biacore T200 Evaluation software, using a 1-1 Langmuir binding model. KD (affinity, nM) was determined as a ratio of the kinetic rate constants calculated from the fits of the association and dissociation phases.
For anti-CD3-LC-containing IgGs that had detectable ROR1-binding in ELISA (1944-A07 and 1987-C05 variants), those antibodies were further tested for binding by surface plasmon resonance (SPR). Binding kinetics were assessed to the ROR1-frizzled domain (hROR1-Fz) or the ROR1-extracellular domain (hROR1) for 1944-A07 and 1987-C05 variants, respectively. […] KD (affinity, nM) was determined as a ratio of the kinetic rate constants calculated from the fits of the association and dissociation phases.

[7] = tested on: MDA-MB-231 tumor; test: MDA-MB-231 TNBC xenograft model; type: in vivo, SCID/beige mice
Description: (§5) The activities of ROR1-targeted ADCs described herein were examined in a MDA-MB-231 TNBC xenograft model. Briefly, SCID/beige mice were implanted subcutaneously with 5×10^6 MDA-MB-231 tumor cells in the mammary fat pad and randomized and enrolled into the study 7 days post implant, with tumor sizes around 130 mm^3. Tumor-bearing mice were administered four weekly doses (qw×4) of the test articles at doses ranging from 2 mg/kg to 5 mg/kg. All treatments were well tolerated with normal body weight gain throughout the course of the study.
as §5, with “SCID/beige” for “The activities of ROR1-targeted ADCs described herein were examined in a MDA-MB-231 TNBC xenograft model. Briefly, SCID/beige”
as §5, with “SCID/beige” for “The activities of ROR1-targeted ADCs described herein were examined in a MDA-MB-231 TNBC xenograft model. Briefly, SCID/beige”, “three” for “four”, “(qw×3)” for “(qw×4)”, “study. […]” for “study.”

[8] = co-culture with PMBCS at E:T=10.1, 3 days

## CC[C@@]1(O)C(=O)OCc2c1cc1n(c2=O)Cc2c-1nc1cc(F)c(C)c3c1c2[C@@H](NC(=O)CO)CC3 [Dxd]
[1]
  NTERA-2 Span: 99%
[2]
  MCF-7 Span: 63%

## COc1cccc2c1C(=O)c1c(O)c3c(c(O)c1C2=O)C[C@@](O)(C(=O)NCCN)C[C@@H]3O[C@H]1C[C@H]2[C@H](O[C@@H]3[C@@H](OC)OCCN32)[C@H](C)O1 [PNU-EDA]
[1]
  NTERA-2 Span: 99%
[2]
  MCF-7 Span: 85%

## CC[C@@]1(O)C(=O)OCc2c1cc1n(c2=O)Cc2c-1nc1cc(F)c(C)c3c1c2[C@@H](N)CC3 [exatecan]
[1]
  NTERA-2 Span: 98%
[3]; [8]
  cell killing of target cells (live target cell count): induced potent cell killing of target cells
  monocyte activation (CD86 expression): potently induced monocyte activation
[3]; concomitant with reduced viability (FIG. 21C)
  calreticulin on the cell surface: calreticulin could be detected on the cell surface
[2]
  MCF-7 Span: 91%
[4]
  markers for immunogenic cell death (calreticulin translocation to the cell surface and HMGB1 release): induced markers for immunogenic cell death

## O=C(c1cc(Cc2n[nH]c(=O)c3ccccc23)ccc1F)N1CCN(C(=O)C2CC2)CC1 [olaparib]
[5]
  tumor growth suppression, single agent: moderate tumor growth suppression

B1: 1987-C05 HC w/hUCHT1 LC3: HC of lead antibody 1987-C05 co-expressed with LC "derived from anti-CD3 antibodies": hUCHT1-LC3 (antibody, V domains shown)
VH: EVQLVESGGGLVQPGGSLRLSCAASGFNISDYDIHWVRQAPGKGLEWVGGIDPDDGSTDYADSVKGRFTISADTSKNTAYLQMNSLRAEDTAVYYCARDYGVFDYWGQGTLVTVSS
VL: DIQMTQSPSTLSASVGDRVTITCRASQDIRNYLNWYQQKPGKAPKLLIYYTSRLHSGVPSRFSGSGSGTEYTLTISSLQPDDFATYYCQQGNTLPWTFGGGTKVEIK
[6]
  kd1: 0.000645 s⁻¹
[6]; 1-1 Langmuir
  ka1: 566000 M⁻¹ s⁻¹

B2: Conjugate 4 (conjugate)
heavy: MEVQLVESGGGLVQPGGSLRLSCAASGFNISDYDIHWVRQAPGKGLEWVGGIDPADGSTDYADSVKGRFTISADTSKNTAYLQMNSLRAEDTAVYYCARDYGVYDYWGQGTLVTVSSASTKGPSVFPLAPSSKSTSGGTAALGCLVKDYFPEPVTVSWNSGALTSGVHTFPAVLQSSGLSLSSVVTVPSSSLGTQTYICNVNHKPSNTKVDKKVEPKSCDKTHTCPPCPAPELLGGPSVFLFPPKPKDTLMISRTPEVTCVVVDVSHEDPEVKFNWYVDGVEVHNAKTKPREEQYNSTYRVVSVLTVLHQDWLNGKEYKCKVSNKALPAPIEKTISKAKGQPREPQVYTLPPSREEMTKNQVSLTCLVKGFYPSDIAVEWESNGQPENNYKTTPPVLDSDGSFLYSKLTVDKSRWQQGNVFSCSVMHEALHNHYTQKSLSLSPGK
light: MDIQMTQSPSSLSASVGDRVTITCRASQDVNTAVAWYQQKPGAPKLLIYSASFLYSGVPSRFSGSRSGTDFTLTISSLQPEDFATYYCQQHYTTPPTFGQGTKVEIKRTVAAPSVFIFPPSDEQLKSGTASVVCLLNNFYPREAKVQWKVDNALQSGNSQSVTEQDSKDSTYSLSSTLTLSKADYEKHKVYACEVTHQGLSSPVTKSFNRGEC
[7]; Example 20, day 42, 2 mg/kg qw×4
  TGI: 36%
[7]; Example 21, day 43, 5 mg/kg qw×4
  TGI: 23%
